{
  "source": "patent US20240108753A1",
  "about": "“NUCLEIC ACID DELIVERY” (NUNTIUS THERAPEUTICS LIMITED, priority 2021, published 2024)",
  "assay": "Cell viability after transfection (crystal violet)",
  "format": "cell-based, human",
  "conditions": "human, HeLa cells, following transfection with DNA formulations",
  "protocol": "Cell viability. Cells were transfected as described in ‘Transfection Procedure’. Following 24 hours of transfection, the medium was removed and the cells were washed twice with PBS. Afterwards, the cells were dried for 1 hour at room temperature (to allow permeation of the nuclear stain). Crystal violet solution (50 μL of stock solution supplied by Sigma-Aldrich) was added to the cells. They were incubated for 15 min at room temperature. After washing with distilled water (5 times), the cells were dried for 30 min at room temperature. Then, MeOH (200 μL) was added and the suspension was incubated for 1 hour at room temperature. The relative amount of the crystal violet stain retained by viable cells was determined by the absorbance of the methanolic solution at 550 nm.",
  "note": "Where a SMILES comes first, the peptide text is derived from it.",
  "data": [
    {"smiles": "CC(C)C[C@H](NC(=O)[C@H](CCCCN)NC(=O)[C@H](CCCCNC(=O)[C@H](CC(C)C)NC(=O)[C@H](CCCCN)NC(=O)[C@H](CCCCNC(=O)[C@H](CC(C)C)NC(=O)[C@@H](N)CCCCN)NC(=O)[C@H](CC(C)C)NC(=O)[C@@H](N)CCCCN)NC(=O)[C@H](CC(C)C)NC(=O)[C@H](CCCCN)NC(=O)[C@H](CCCCNC(=O)[C@H](CC(C)C)NC(=O)[C@@H](N)CCCCN)NC(=O)[C@H](CC(C)C)NC(=O)[C@@H](N)CCCCN)C(=O)NCCCC[C@H](NC(=O)[C@H](CC(C)C)NC(=O)[C@H](CCCCN)NC(=O)[C@H](CCCCNC(=O)[C@H](CC(C)C)NC(=O)[C@H](CCCCN)NC(=O)[C@H](CCCCNC(=O)[C@H](CC(C)C)NC(=O)[C@@H](N)CCCCN)NC(=O)[C@H](CC(C)C)NC(=O)[C@@H](N)CCCCN)NC(=O)[C@H](CC(C)C)NC(=O)[C@H](CCCCN)NC(=O)[C@H](CCCCNC(=O)[C@H](CC(C)C)NC(=O)[C@@H](N)CCCCN)NC(=O)[C@H](CC(C)C)NC(=O)[C@@H](N)CCCCN)C(=O)NCC(=O)N[C@@H](CO)C(=O)N[C@@H](CS)C(N)=O", "note": "[G1,2,3-KL, (KL)8(KKL)4(KKL)2KGSC-NH2] (HELM PEPTIDE1{K.L.K.K.L.K.K.L.K.G.S.C.[am]}|PEPTIDE2{K.L}|PEPTIDE3{K.L.K.K.L.K.K.L}|PEPTIDE4{K.L}|PEPTIDE5{K.L.K.K.L}|PEPTIDE6{K.L}|PEPTIDE7{K.L.K.K.L}|PEPTIDE8{K.L}$PEPTIDE1,PEPTIDE2,3:R3-2:R2|PEPTIDE3,PEPTIDE4,3:R3-2:R2|PEPTIDE5,PEPTIDE6,3:R3-2:R2|PEPTIDE7,PEPTIDE8,3:R3-2:R2|PEPTIDE1,PEPTIDE7,6:R3-5:R2|PEPTIDE1,PEPTIDE3,9:R3-8:R2|PEPTIDE3,PEPTIDE5,6:R3-5:R2$$$V2.0)", "values": [
      {"measurement": "viability at 24 h", "value": "≥ 40", "unit": "%"}
    ]}
  ]
}
